Molecular target: human SCD1 (Homo sapiens (Human), UniProt O00767)
Assay: Yeast growth assay, strain expressing human SCD1 as the sole desaturase (reduced growth as surrogate for SCD inhibition)
Format: cell-based
Conditions: yeast with OLE1 deleted expressing human SCD1 from a plasmid; growth read as OD600 after 40 h at 30° C.; top drug concentration 33.3 μM
Procedure: Strains expressing SCD1 or SCD5 as the sole desaturase, the human SCD1 and SCD5 genes were used to evaluate inhibition of SCD1/SCD5 using reduced growth as a surrogate for SCD inhibition. These yeast strains express human SCD1 or SCD5 from a plasmid harbored in a strain in which the yeast OLE1 gene is deleted.
All compound profiling experiments were performed using the same basic protocol. Yeast were cultured using standard techniques in complete synthetic media lacking uracil and containing yeast nitrogen base supplemented with 2% (w/v) glucose (SD-Ura) Starter cultures were inoculated in 3 mL SD-Ura media containing 0.01% tween and 0.2 mM palmitoleic and oleic acid. Cultures were incubated overnight in a 30° C. shaker incubator (225 rpm). Saturated morning cultures were centrifuged, washed in SD-Ura media lacking TWEEN-20 and fatty acids, and then diluted 1:20 in fresh SD-Ura media also lacking TWEEN-20 and fatty acids.
Compound administration was performed in two separate steps. First, 15 μL of SD-Ura was dispensed into clear 384-well assay plates using a MULTIDROP™ Combi reagent dispenser. […] The cultures described above were centrifuged and washed with media lacking TWEEN-20 or oleic and palmitoleic acids.
After yeast delivery, assay plates were incubated under humidified conditions at 30° C. for 40 h. Yeast growth was monitored by reading the OD600 of each well using a microplate reader (Perkin Elmer EnVision™).

human SCD1, sequence (O00767 whole entry): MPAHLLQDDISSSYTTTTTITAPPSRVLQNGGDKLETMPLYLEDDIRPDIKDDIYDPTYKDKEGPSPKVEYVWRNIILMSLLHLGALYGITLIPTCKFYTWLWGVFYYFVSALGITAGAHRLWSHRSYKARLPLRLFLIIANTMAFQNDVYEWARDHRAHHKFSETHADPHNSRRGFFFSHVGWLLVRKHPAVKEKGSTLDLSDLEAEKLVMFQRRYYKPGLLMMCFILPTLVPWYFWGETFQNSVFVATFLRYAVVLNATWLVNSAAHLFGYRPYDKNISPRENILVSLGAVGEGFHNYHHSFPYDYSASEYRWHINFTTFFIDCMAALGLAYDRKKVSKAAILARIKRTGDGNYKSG

IC50 [µM] | Compound
> 45 | COC1(c2ccccc2)CCN(C(=O)c2cc(-c3ccccc3)on2)CC1 [Compound 323]
0.065 | CO[C@H]1CCN(c2cc(C(=O)Nc3cnn(Cc4ccccc4)c3)no2)C1 [Compound 189, (S)—N-(1-benzyl-1H-pyrazol-4-yl)-5-(3-methoxypyrrolidin-1-yl)isoxazole-3-carboxamide]
> 45 | CC(C)c1cc(C(=O)N2CCC(c3cccc(F)c3)C2)no1 (stereo not shown) [Compound 350]
40.2 | COc1ccc(-c2cc(C(=O)N3CCCC3c3ccccc3F)no2)nc1 (stereo not shown) [Compound 415]
> 45 | O=C(c1cc(-c2ccccc2)on1)N1CCC[C@@H]1c1ccccc1 [Compound 385]
> 45 | O=C(c1cc(-c2ccccc2Cl)on1)N1CCC(c2ccccc2)C1 (stereo not shown) [Compound 333]
> 45 | COc1ccc([C@H]2CCCN2C(=O)c2cc(-c3ccc4c(c3)OCO4)on2)cc1 [Compound 360]
0.19 | O=C(Nc1cnn(Cc2cccc(F)c2)c1)c1cc(-c2cncs2)on1 [Compound 69, N-(1-(3-fluorobenzyl)-1H-pyrazol-4-yl)-5-(thiazol-5-yl)isoxazole-3-carboxamide]
> 45 | O=C(c1cc(-c2ccc3c(c2)OCO3)on1)N1CCCC1c1ncco1 (stereo not shown) [Compound 423]
> 45 | CC1CN(c2ccccc2)CCN1C(=O)c1cc(-c2ccc3c(c2)OCO3)on1 (stereo not shown) [Compound 270, (5-(benzo[d][1,3]dioxol-5-yl)isoxazol-3-yl)(2-methyl-4-phenylpiperazin-1-yl)methanone]
> 45 | O=C(c1cc(-c2ccc3c(c2)OCO3)on1)N1CCCC1C1CCOCC1 (stereo not shown) [Compound 413]
> 45 | O=C(c1cc(-c2ccccn2)on1)N1CCC[C@H]1c1ccccc1 [Compound 408]
> 45 | O=C(c1cc(-c2ccc3c(c2)OCO3)on1)N1CCC[C@@H]1c1ccccc1 [Compound 358]
3.27 | O=C(c1cc(-c2ccc3c(c2)OCO3)on1)N1CC=C(c2cc(F)ccc2Cl)CC1 [Compound 306, [5-(1,3-benzodioxol-5-yl)isoxazol-3-yl]-[4-(2-chloro-5-fluoro-phenyl)-3,6-dihydro-2H-pyridin-1-yl]methanone]
> 45 | O=C(c1cc(-c2ccccc2)on1)N1CCC(c2ccccc2C(F)(F)F)CC1 [Compound 289, (5-phenylisoxazol-3-yl)-[4-[2-(trifluoromethyl)phenyl]-1-piperidyl]methanone]
> 45 | Cc1nn(C)c2cc(-c3cc(C(=O)N4COCC4c4ccccc4)no3)ccc12 (stereo not shown) [Compound 419]
12 | O=C(c1cc(-c2ccccc2)on1)N1CC2(C1)CC(O)(c1ccccc1)C2 [Compound 226, (6-hydroxy-6-phenyl-2-azaspiro[3.3]heptan-2-yl)-(5-phenylisoxazol-3-yl)methanone]
> 45 | CNC(=O)c1ccc(-c2cc(C(=O)N3CC(c4ccccc4)C3)no2)cc1 [Compound 231, N-methyl-4-(3-(3-phenylazetidine-1-carbonyl)isoxazol-5-yl)benzamide]
> 45 | N#Cc1ccc(-c2cc(C(=O)N3CCC[C@H]3c3ccccc3)no2)nc1 [Compound 435]
> 45 | O=C(c1cc(-c2ccc3c(c2)OCO3)on1)N1CCCC1c1ccnc(Br)c1F (stereo not shown) [Compound 459]
> 45 | COc1ccc(C2CCCN2C(=O)c2cc(-c3ccc(OC(F)(F)F)cc3)on2)cc1 (stereo not shown) [Compound 380]
> 45 | O=C(c1cc(-c2ccc3c(c2)OCO3)on1)N1CCCC1c1ccccc1 (stereo not shown) [Compound 354]
> 45 | COc1ccc(C2CCCN2C(=O)c2cc(-c3ccc4c(c3)OC(F)(F)O4)on2)cc1 (stereo not shown) [Compound 393]

IC50 [µM] | Compound
2 | O=C(Nc1cnn(Cc2ccccc2)c1)c1cc(N2CC[C@@H](O)C2)on1 [Compound 186, (R)—N-(1-benzyl-1H-pyrazol-4-yl)-5-(3-hydroxypyrrolidin-1-yl)isoxazole-3-carboxamide]
> 45 | COc1ccc(C2CCCN2C(=O)c2cc(-c3ccc4c(c3)OCO4)on2)cc1 (stereo not shown) [Compound 356]
> 45 | O=C(c1cc(-c2ccco2)on1)N1CC2(CCC2)C1 [Compound 246]
25 | CC(C)c1cc(C(=O)Nc2cnn(Cc3cnccc3C(F)(F)F)c2)no1 [Compound 161, 5-isopropyl-N-(1-((4-(trifluoromethyl)pyridin-3-yl)methyl)-1H-pyrazol-4-yl)isoxazole-3-carboxamide]
> 45 | O=C(Nc1cnn(Cc2ccccc2)c1)c1cc(Cl)on1 [Compound 180]
> 45 | O=C(c1cc(-c2ccc3c(c2)OCO3)on1)N1CCCC1C1CC1 (stereo not shown) [Compound 407]
> 45 | COc1ccccc1C1CCCN1C(=O)c1cc(-c2ccc3c(c2)OCO3)on1 (stereo not shown) [Compound 364]
> 45 | O=C(c1cc(-c2ccc3c(c2)OCO3)on1)N1CCCC1c1ccncc1F (stereo not shown) [Compound 460]
> 45 | C[C@H]1CCCN1C(=O)c1cc(-c2ccc3c(c2)OCO3)on1 [Compound 369]
> 45 | O=C(c1cc(-c2ccc3c(c2)OCO3)on1)N1CCC(c2ccccc2C(F)(F)F)CC1 [Compound 302, [5-(1,3-benzodioxol-5-yl)isoxazol-3-yl]-[4-[2-(trifluoromethyl)phenyl]-1-piperidyl]methanone]
> 45 | COc1ccc(C2CCCN2C(=O)c2cc(-c3cccc(OC)c3)on2)cc1 (stereo not shown) [Compound 375]
> 45 | O=C(Nc1cnn(Cc2ccccc2)c1)c1cc(N2CCNCC2)on1 [Compound 190]
0.21 | CC1(c2cc(C(=O)Nc3cnn(Cc4ccccc4)c3)no2)COC1 [Compound 121]
> 45 | O=C(c1cc(-c2ccc3c(c2)OCO3)on1)N1CCCc2cccc(F)c21 [Compound 264]
0.066 | O=C(Nc1cnn(Cc2cccc(F)c2)c1)c1cc(C2CCCCC2)on1 [Compound 83, 5-cyclohexyl-N-(1-(3-fluorobenzyl)-1H-pyrazol-4-yl)isoxazole-3-carboxamide]
30.5 | O=C(c1cc(-c2ccccc2)on1)N1CCC[C@H]1c1ccccc1 [Compound 386]
36 | O=C(c1cc(-c2ccccc2)on1)N1CCn2ccnc2C1 [Compound 268]
> 45 | O=C(Nc1cnn(Cc2cccc(C(F)(F)F)c2)c1)c1cc(-c2ccco2)on1 [Compound 20, 5-(2-furyl)-N-[1-[[3-(trifluoromethyl)phenyl]methyl]pyrazol-4-yl]isoxazole-3-carboxamide]
3.9 | O=C(Nc1cnn(Cc2cccc(F)c2)c1)c1cc(Cl)on1 [Compound 105, 5-chloro-N-(1-(3-fluorobenzyl)-1H-pyrazol-4-yl)isoxazole-3-carboxamide]
> 45 | O=C(Nc1cnn(Cc2cc(F)ccc2Cl)c1)c1cc(-c2ccco2)on1 [Compound 28, N-(1-(2-chloro-5-fluorobenzyl)-1H-pyrazol-4-yl)-5-(furan-2-yl)isoxazole-3-carboxamide]
0.058 | O=C(Nc1cnn(Cc2ccccc2)c1)c1cc(N2CCCCC2)on1 [Compound 159, N-(1-benzyl-1H-pyrazol-4-yl)-5-(piperidin-1-yl)isoxazole-3-carboxamide]
> 45 | Cn1nccc1-c1ccc2c(C(=O)N3CCC[C@H]3c3ccccc3)noc2c1 [Compound 454]
31.1 | N#Cc1cccc(-c2cc(C(=O)N3CCC[C@H]3c3ccccc3)no2)c1 [Compound 403]

Compound | IC50 [µM]
O=C(Nc1cnn(Cc2cccc(F)c2)c1)c1cc(-c2cnco2)on1 [Compound 86, N-(1-(3-fluorobenzyl)-1H-pyrazol-4-yl)-5-(oxazol-5-yl)isoxazole-3-carboxamide] | 0.188
COC1(c2cc(C(=O)Nc3cnn(Cc4cccc(F)c4)c3)no2)CCC1 [Compound 115, N-(1-(3-fluorobenzyl)-1H-pyrazol-4-yl)-5-(1-methoxycyclobutyl)isoxazole-3-carboxamide] | 0.34
N-(1-(3-fluorobenzyl)-1H-pyrazol-4-yl)-5-(pyrimidin-4-yl)isoxazole-3-carboxamide [Compound 90] | 1.1
O=C(c1cc(-c2ccc(Cl)cn2)on1)N1CC(c2ccccc2)C1 [Compound 241, (5-(5-chloropyridin-2-yl)isoxazol-3-yl)(3-phenylazetidin-1-yl)methanone] | 3.38
5-acetyl-N-(1-(3-fluorobenzyl)-1H-pyrazol-4-yl)isoxazole-3-carboxamide [Compound 91] | 0.439
Cc1ncc(-c2cc(C(=O)Nc3cnn(Cc4ccccc4)c3)no2)o1 [Compound 164, N-(1-benzyl-1H-pyrazol-4-yl)-5-(2-methyloxazol-5-yl)isoxazole-3-carboxamide] | 11
O=C(Nc1cnn(CC2CCCCC2)c1)c1cc(-c2ccco2)on1 [Compound 26, N-[1-(cyclohexylmethyl)pyrazol-4-yl]-5-(2-furyl)isoxazole-3-carboxamide] | > 45
O=C(Nc1cnn(Cc2ccccc2)c1)c1cc(-c2nncs2)on1 [Compound 170, N-(1-benzyl-1H-pyrazol-4-yl)-5-(1,3,4-thiadiazol-2-yl)isoxazole-3-carboxamide] | 0.131
O=C(Nc1cnn(Cc2cnccc2C(F)(F)F)c1)c1cc(-c2cnco2)on1 [Compound 171, 5-(oxazol-5-yl)-N-(1-((4-(trifluoromethyl)pyridin-3-yl)methyl)-1H-pyrazol-4-yl)isoxazole-3-carboxamide] | 19

Source: patent publication US10919885B2, “Compounds and uses thereof” (Yumanity Therapeutics, Inc., priority 2018, dated 2021)
